Measurements as given in EP1192125B9, “MONO-SUBSTITUTED 3-PROPYL GAMMA-AM[…]” (Warner-Lambert Company LLC, priority 1999, dated 2000).
Read-outs that look alike come from different tables or passages of the source.

How the values were obtained:
Assay type in all cases: in vivo
[1] = test system: DBA/2 mice; test: DBA2 mouse model of anticonvulsant efficacy (sound-induced seizures); set-up: Anticonvulsant % Protect 2 br / Anticonvulsant % Protect 1hr: concentration or dose not given beside the values; conditions: for Anticonvulsant % Protect 2 br / Anticonvulsant % Protect 1hr: Table 1; for responders at 30 mg/kg: Mus musculus
[2] = Anxiolytic activity relative to pregabalin (test model not specified); conditions: 30 mg/kg PO; percent of pregabalin activity
[3] = test system: Male Sprague-Dawley rats; test: Carrageenin-induced hyperalgesia, rat paw pressure test; conditions: dosed orally at 30 mg/kg
Protocol: Male Sprague-Dawley rats (70-90 g) were trained on this apparatus before the test day. Pressure was gradually applied to the hind paw of each rat and nociceptive thresholds were determined as the pressure (g) required to elicit paw withdrawal. […] On the test day, two to three baseline measurements were taken before animals were administered 100 µL of 2% carrageenin by intraplantar injection into the right hind paw.

[4] = 30 mg/kg PO, 1h, read-out: Anticonvulsant % Protect* 1h
[5] = 30 mg/kg PO, 2h, read-out: Anticonvulsant % Protect* 2h

Row | Structure (SMILES) | responders at 30 mg/kg [1, 4] [%] | responders at 30 mg/kg [1, 5] [%] | Anxiolytic Activity* % Preg. Act. [2] [%] | also measured
1 | CC[C@@H](C)[C@H](CN)CC(=O)O |  |  |  | Anticonvulsant % Protect 2 br [1]: 0%; Anticonvulsant % Protect 1hr [1]: 0%
2 | CC(C)[C@@H](C)C(CN)CC(=O)O (stereo partly drawn) |  |  |  | Anticonvulsant % Protect 2 br [1]: 100%; Anticonvulsant % Protect 1hr [1]: 80%
3 | CCC(CC)C(CN)CC(=O)O (stereo not drawn) |  |  |  | Anticonvulsant % Protect 2 br [1]: 20%; Anticonvulsant % Protect 1hr [1]: 0%
4 | CCC(CC)CC(CN)CC(=O)O (stereo not drawn) |  |  |  | Anticonvulsant % Protect 2 br [1]: 20%; Anticonvulsant % Protect 1hr [1]: 0%
5 | CCC(C)CC(CN)CC(=O)O (stereo not drawn) |  |  |  | Anticonvulsant % Protect 2 br [1]: 100%; Anticonvulsant % Protect 1hr [1]: 60%
6 | CCC(C)CC(CN)CC(=O)O (racemic) [3-Aminomethyl-5-methylheptanoic acid] | 60 | 100 | 79 | 
7 | CC(C)C(c1ccccc1)C(CN)CC(=O)O (stereo not drawn) [3-Aminomethyl-5-methyl-4-phenyl-hexanoic acid] | 0 | 0 |  | 
8 | CC(Cc1ccccc1)CC(CN)CC(=O)O (stereo not drawn) [3-Aminomethyl-5-methyl-6-phenyl-hexanoic acid] | 0 | 0 |  | 
9 | C=CCC(C)CC(CN)CC(=O)O (stereo not drawn) [3-Aminomethyl-5-methyl-oct-7-enoic acid] | 0 | 0 |  | 
10 | CCCCCC(C)CC(CN)CC(=O)O (stereo not drawn) [3-Aminomethyl-5-methyldecanoic acid, 3-Aminomethyl-5-methyl-decanoic acid] | 0 | 0 |  | 
11 | CCCCC(C)CC(CN)CC(=O)O (stereo not drawn) [3-Aminomethyl-5-methylnonanoic acid, 3-Aminomethyl-5-methyl-nonanoic acid] | 40 | 80 |  | 
12 | CCCC(C)CC(CN)CC(=O)O (stereo not drawn) [3-Aminomethyl-5-methyloctanoic acid, 3-Aminomethyl-5-methyl-octanoic acid] | 40 | 100 |  | 
13 | CC(CC(CN)CC(=O)O)C(F)(F)F (stereo not drawn) [3-Aminomethyl-6,6,6-trifluoro-5-methyl-hexanoic acid] | 0 | 0 |  | 
14 | CCC(C(C)C)C(CN)CC(=O)O (stereo not drawn) [3-aminomethyl-4-isopropyl-hexanoic acid, 3-Aminomethyl-4-isopropyl-hexanoic acid] | 0 | 0 |  | 
15 | CCCCC(C(C)C)C(CN)CC(=O)O (stereo not drawn) [3-aminomethyl-4-isopropyl-octanoic acid, 3-Aminomethyl-4-isopropyl-octanoic acid] | 0 | 0 |  | 
16 | CC(C)[C@@H](C)[C@H](CN)CC(=O)O [(3R,4R)-3-Aminomethyl-4,5-dimethyl-hexanoic acid] |  |  | 204 | 
17 | CC(C)[C@H](C)[C@H](CN)CC(=O)O [(3R,4S)-3-Aminomethyl-4,5-dimethyl-hexanoic acid] |  |  | 58 | 
18 | CC(C)[C@@H](C)[C@@H](CN)CC(=O)O [(3S,4R)3-Aminomethyl-4,5-dimethyl-hexanoic acid] |  |  | 12 | Anticonvulsant % Protect* 1h ([1]; 30 mg/kg PO, 1h): 20%; Anticonvulsant % Protect* 2h ([1]; 30 mg/kg PO, 2h): 20%
19 | CCCCC[C@@H](C)C[C@H](CN)CC(=O)O [(3S,5R)-3-Aminomethyl-5-methyl-decanoic acid] | 100 | 100 | 105.59 | 
20 | CC[C@@H](C)C[C@H](CN)CC(=O)O [(3S,5R)-3-Aminomethyl-5-methyl-heptanoic acid] |  |  |  | Anticonvulsant % Protect* 2h ([1]; 30 mg/kg PO, 2h): 100%
21 | CCCC[C@@H](C)C[C@H](CN)CC(=O)O.Cl [(3S,5R)-3-Aminomethyl-5-methyl-nonanoic acid hydrochloride] | 100 | 100 | 125.94 | 
22 | CCC[C@@H](C)C[C@H](CN)CC(=O)O.Cl [(3S,5R)-3-Aminomethyl-5-methyl-octanoic acid hydrochloride] | 100 | 100 | 160 | 
23 | CCCCC[C@H](C)C[C@H](CN)CC(=O)O [(3S,5S)-3-Aminomethyl-5-methyl-decanoic acid] | 0 | 20 |  | 
24 | CCC[C@H](C)C[C@H](CN)CC(=O)O [(3S,5S)-3-Aminomethyl-5-methyl-octanoic acid] | 0 | 20 | 15.6 | 
25 | CCCC[C@H](C)C[C@H](CN)CC(=O)O [(3S, 5S)-3-Aminomethyl-5-methyl-nonanoic acid] | 0 | 0 |  | 
26 | Cl.O=C(O)[C@H]1CNCC12CCCCC2 [(R)-2-Aza-spiro[4.5]decane-4-carboxylic acid hydrochloride] |  |  |  | percent of maximum possible effect (MPE) ([3]; 1 hour postdose): 53%; percent of maximum possible effect (MPE) ([3]; 2 hours postdose): 4.6%
27 | CCCC(C)C[C@H](CN)CC(=O)O (stereo partly drawn) [(S)-3-Aminomethyl-5-methyl-octanoic acid] | 100 | 100 | 135.38 | 
28 | COCC(C)C[C@H](CN)CC(=O)O (stereo partly drawn) [(S)-3-Aminomethyl-6-methoxy-5-methyl-hexanoic acid] | 0 | 0 |  | 
29 | CC(C)C[C@H](CN)CC(=O)O [Pregabalin, (S)-3-(Aminomethyl)-5-methylhexanoic acid, reference compound] |  | 100 | 100 | 
30 | CC(C)CC(CN)CC(=O)O (stereo not drawn) [reference compound] |  |  |  | Anticonvulsant % Protect 2 br [1]: 100%
